Target: G-protein coupled receptor 6 (Homo sapiens, UniProt P46095)
Assay: cAMP assay A.1: This cell based assay measures the ability of compounds to inhibit the constitutive cAMP activity of GPR6 receptor expressed in CHO-K1 cells. CHO cells were stably expressed with GPR6 receptor, whose expression is controlled by a tetracycline inducable element. The cells were cultured in medium containing F12K, 10% FBS, 1% Penn/Strep, 200 ug/mL Hygromycin. GPR6 receptor expression was induced for 20 hrs with 1 μg/ml doxycycline (sigma D9891) in growth media. After addition of doxycycline cells were plated at a density of 250-500 cells per well in half-volume black clear bottom plates (Costar) and place in an incubator (37°, 5% C(O)2) for 20 hours prior to cAMP assays. Culture media was removed from cells and they were washed with 50 μL of Ringer's Buffer (MgCl2 0.047 mg/mL, NaH2PO4 0.18 mg/mL, Na2HPO4 0.1 mg/mL, KCl 0.34 mg/mL, NaHC(O)3 1.26 mg/mL, D-glucose 1.8 mg/mL, NaCl 7 mg/mL; pH=7.4). Compounds suspended in DMSO were diluted in Ringer's Buffer containing 0.5% fatty acid free BSA and incubated on cells for 45 min at 37° and 5% C(O)2. After incubation cells were incubated for 10 min at room temp with Eu-cAMP tracer solution from a Perkin Elmer Lance HTRF UltracAMP assay kit (TRF0264). Then ULight-anti-cAMP solution from the Lance HTRF kit was added and incubated on a shaker at room temp for 1 hour prior to HTRF detection in a BMG PolarStar Omega. […]

Sequence of G-protein coupled receptor 6 (P46095 whole entry): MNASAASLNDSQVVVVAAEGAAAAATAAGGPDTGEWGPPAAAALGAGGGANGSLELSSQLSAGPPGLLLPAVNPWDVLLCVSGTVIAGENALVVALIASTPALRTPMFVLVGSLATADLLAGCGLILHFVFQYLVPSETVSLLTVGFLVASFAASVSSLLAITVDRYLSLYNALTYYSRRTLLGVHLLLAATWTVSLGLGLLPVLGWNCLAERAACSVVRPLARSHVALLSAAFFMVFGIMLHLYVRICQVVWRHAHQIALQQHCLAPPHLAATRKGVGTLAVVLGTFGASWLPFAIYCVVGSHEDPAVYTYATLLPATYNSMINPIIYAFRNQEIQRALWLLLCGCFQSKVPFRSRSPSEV

IC50	SMILES
> 1 mM	CN1CCc2nc(N3CCC(Oc4ccc(F)cc4F)CC3)c(NCC(F)F)nc2C1
> 1 mM	CC(=O)N1CCc2nc(N3CCN(C(=O)OC(C)(C)C)CC3)c(NC(C)C)nc2C1

Reference: ChEMBL document CHEMBL5725509, “Substituted pyrido[3,4-b]pyrazines as GPR6 modulators” (2017)
